Test results published in the NIST ThermoML archive (doi:10.1021/acs.jced.8b00132).
“And” between values parts separate entries of the source, which are not always exact repeats. Equal entries are not always repeated.

Settings: Gas

O=C(C(F)(F)C(F)(F)F)C(F)(C(F)(F)F)C(F)(F)F [dodecafluoro-2-methylpentan-3-one]
Settings	thermal conductivity
473.39 K, 1887 kPa, transient hot wire	0.02688 W/m/K
473.39 K, 22521 kPa, transient hot wire	0.05152 W/m/K
473.39 K, 49215 kPa, transient hot wire	0.06271 W/m/K
473.39 K, 49255 kPa, transient hot wire	0.06285 W/m/K
473.4 K, 22522 kPa, transient hot wire	0.05154 W/m/K
473.4 K, 33946 kPa, transient hot wire	0.05711 W/m/K
473.42 K, 7819 kPa, transient hot wire	0.04151 W/m/K
473.44 K, 47 kPa, hot wire	0.02441 W/m/K
473.44 K, 201 kPa, hot wire	0.0244 W/m/K
473.44 K, 7822 kPa, transient hot wire	0.0416 W/m/K
473.44 K, 49246 kPa, transient hot wire	0.06304 W/m/K
473.45 K, 47 kPa, hot wire	0.02432 W/m/K
473.45 K, 606 kPa, hot wire	0.02611 W/m/K
473.45 K, 49207 kPa, transient hot wire	0.06277 W/m/K
473.45 K, 49209 kPa, transient hot wire	0.06279 W/m/K
473.45 K, 49249 kPa, transient hot wire	0.06286 W/m/K
473.46 K, 202 kPa, hot wire	0.02416 W/m/K
473.46 K, 606 kPa, hot wire	0.02602 W/m/K
473.46 K, 1913 kPa, transient hot wire	0.0269 W/m/K
473.46 K, 10825 kPa, transient hot wire	0.04418 W/m/K
473.46 K, 10827 kPa, transient hot wire	0.04414 W/m/K
473.47 K, 33946 kPa, transient hot wire	0.05693 W/m/K
473.48 K, 419 kPa, hot wire	0.02531 W/m/K
473.48 K, 1914 kPa, transient hot wire	0.027 W/m/K
473.48 K, 22521 kPa, transient hot wire	0.05152 W/m/K
473.48 K, 33946 kPa, transient hot wire	0.05688 W/m/K
473.49 K, 418 kPa, hot wire	0.02526 W/m/K
473.49 K, 1887 kPa, transient hot wire	0.027 W/m/K
473.49 K, 15492 kPa, transient hot wire	0.04746 W/m/K
473.49 K, 49134 kPa, transient hot wire	0.06279 W/m/K
473.5 K, 1887 kPa, transient hot wire	0.02709 W/m/K
473.51 K, 1475 kPa, transient hot wire	0.02577 W/m/K
473.51 K, 49242 kPa, transient hot wire	0.0628 W/m/K
473.52 K, 1475 kPa, transient hot wire	0.02566 W/m/K
473.52 K, 7821 kPa, transient hot wire	0.04156 W/m/K
473.52 K, 7822 kPa, transient hot wire	0.04146 W/m/K
473.53 K, 10824 kPa, transient hot wire	0.04374 W/m/K
473.53 K, 49248 kPa, transient hot wire	0.06293 W/m/K
473.54 K, 46 kPa, hot wire	0.0245 W/m/K
473.54 K, 201 kPa, hot wire	0.02457 W/m/K
473.55 K, 201 kPa, hot wire	0.02434 W/m/K
473.55 K, 839 kPa, transient hot wire	0.02508 W/m/K
473.55 K, 10823 kPa, transient hot wire	0.0442 W/m/K
473.55 K, 22519 kPa, transient hot wire	0.05152 W/m/K
473.55 K, 33944 kPa, transient hot wire	0.05699 W/m/K
473.55 K, 33949 kPa, transient hot wire	0.05683 W/m/K
473.56 K, 46 kPa, hot wire	0.02434 W/m/K
473.56 K, 22522 kPa, transient hot wire	0.05162 W/m/K
473.57 K, 840 kPa, transient hot wire	0.02498 W/m/K
473.58 K, 1912 kPa, transient hot wire	0.02703 W/m/K and 0.02697 W/m/K
473.58 K, 15493 kPa, transient hot wire	0.04744 W/m/K
473.6 K, 604 kPa, transient hot wire	0.02513 W/m/K
473.6 K, 15489 kPa, transient hot wire	0.04749 W/m/K
473.61 K, 605 kPa, transient hot wire	0.02525 W/m/K
473.62 K, 33950 kPa, transient hot wire	0.05685 W/m/K
473.63 K, 10824 kPa, transient hot wire	0.04429 W/m/K
473.64 K, 10823 kPa, transient hot wire	0.04414 W/m/K
473.65 K, 1476 kPa, transient hot wire	0.02571 W/m/K
473.66 K, 1476 kPa, transient hot wire	0.02567 W/m/K
473.67 K, 429 kPa, transient hot wire	0.02546 W/m/K
473.67 K, 15488 kPa, transient hot wire	0.04746 W/m/K
473.67 K, 22520 kPa, transient hot wire	0.05153 W/m/K
473.68 K, 430 kPa, transient hot wire	0.02555 W/m/K
473.71 K, 842 kPa, transient hot wire	0.02515 W/m/K
473.71 K, 1912 kPa, transient hot wire	0.02721 W/m/K
473.71 K, 1913 kPa, transient hot wire	0.02727 W/m/K
473.71 K, 10824 kPa, transient hot wire	0.04392 W/m/K
473.72 K, 841 kPa, transient hot wire	0.02507 W/m/K
473.74 K, 10822 kPa, transient hot wire	0.04424 W/m/K
473.75 K, 22523 kPa, transient hot wire	0.05151 W/m/K and 0.05152 W/m/K
473.77 K, 607 kPa, transient hot wire	0.02516 W/m/K and 0.02531 W/m/K
473.77 K, 15488 kPa, transient hot wire	0.04755 W/m/K
473.78 K, 1476 kPa, transient hot wire	0.02572 W/m/K
473.78 K, 15486 kPa, transient hot wire	0.04744 W/m/K
473.79 K, 1476 kPa, transient hot wire	0.02574 W/m/K
473.81 K, 1914 kPa, transient hot wire	0.02747 W/m/K
473.81 K, 10823 kPa, transient hot wire	0.0442 W/m/K and 0.04427 W/m/K
473.82 K, 427 kPa, transient hot wire	0.02562 W/m/K
473.82 K, 428 kPa, transient hot wire	0.02569 W/m/K
473.82 K, 1914 kPa, transient hot wire	0.0274 W/m/K
473.85 K, 15487 kPa, transient hot wire	0.04761 W/m/K
473.87 K, 15485 kPa, transient hot wire	0.04754 W/m/K
473.88 K, 841 kPa, transient hot wire	0.02504 W/m/K
473.89 K, 841 kPa, transient hot wire	0.02504 W/m/K
